Reference: paper PMC3154276, “The Effect of the Potential PhoQ Histidine Kinase Inhibitors on Shigella flexneri Virulence” (PLoS ONE, 2011)

What was measured:
[1] = system: S. flexneri Sf9380; test: Mouse Sereny test (keratoconjunctivitis); for degree of keratoconjunctival inflammation: key: −: no disease; ±: little keratoconjunctivitis; +: mild keratoconjunctivitis; ++: keratoconjunctivitis with some purulence; +++: fully developed keratoconjunctivitis with great purulence; type: in vivo, BALB/c mice; conditions: for degree of keratoconjunctival inflammation: Sf9380 pre-treated at the concentration (I 1 12.5, I 2 25, I 3 and I 4 100 µmol/L); for eye finding at 24 hours after infection / time by which keratoconjunctivitis was resolved: 1×10^8 CFUs per eye; for keratoconjunctival inflammation (words, abstract): mice inoculated with pre-treated S. flexneri 9380
Text: A Mouse Sereny test was used to investigate the inhibitory effect of the four potential PhoQ inhibitors on the virulence of S. flexneri Sf9380. The mice were infected with 1×10^8 CFUs per eye.
A Mouse Sereny test was used to evaluate the virulence of S. flexneri Sf9380 [48]. A single red colony of Sf9380 on Congo Red agar (Tryptic soy broth provided by Oxfoid Co. with 1.5% agar and 0.01% Congo red), was inoculated into LB and grown with or without potential PhoQ inhibitors (final concentration 100,50,25,12.5 or 6.25 µmol/L) at 37°C for 8 hours with constant shaking. The female BALB/c mice (about 18 g) were infected with 1×10^8 CFUs per eye. The eye of the mouse was inoculated with the bacterium with or without potential PhoQ inhibitor treatment (n = 6 mice in each group). […] In the experiment, mouse eyes inoculated with untreated Sf9380 (treated without DMSO) served as the positive control for keratoconjunctivitis, and mouse eyes inoculated with E. coli ATCC 25922 (treated without DMSO) served as the negative control. Because DMSO is the solvent of the potential PhoQ inhibitor, Sf9380 was treated with the same amount of DMSO (0.1%) as the other groups. The invasiveness of the bacteria was scored: no disease or mild irritation as “−”, + as mild conjunctivitis or late development and/or rapid clearing of symptoms, ++ as keratoconjunctivitis without purulence, and +++ as fully developed keratoconjunctivitis with purulence.

[2] = system: S. flexneri Sf9380; test: Gentamicin protection assay, intracellular growth and spreading to adjacent cell of Sf9380; type: cell-based; conditions: for intracellular growth and spreading to adjacent cell of Sf9380 (bacteria recovered / inoculated): further incubated 290 min, untreated Sf9380 0.12
Description: (§1) The growth curve of Sf9380 treated with or without potential PhoQ inhibitors at concentration 200 µmol/L were tested. […] The gentamicin protection assay was used as a cellular model to evaluate the inhibitory effect of the four potential PhoQ inhibitors. The bacteria were treated with each of the four potential PhoQ inhibitors in a serial dilution and grown for 8 hours. Next, the bacteria were inoculated and incubated with HeLa cells for 60 min prior to the addition of gentamicin to kill extracellular bacteria. For testing intracellular growth and spreading to adjacent cell, cells were further incubated for 290 min [9]. The results of the assays were expressed as the number of bacteria recovered from gentamicin-treated cells divided by the number of inoculated bacteria added to the cell. After lysates of HeLa cells were plated, the number of CFU that formed on LB agar were counted.
(§2) Figure 6 The effects of potential PhoQ inhibitors on virulence of Shigella. […] The bacteria pre-treated with potential PhoQ inhibitor were added to HeLa cells at a multiplicity of infection of 100. Then gentamicin was added to kill extracellular bacteria and cell lysates were plated onto LB plates, and the colonies were counted. The results of the assays were expressed as the number of bacteria recovered from gentamicin-treated cells divided by the number of inoculated bacteria added to the cell. S. flexneri Sf9380 (treated without DMSO), a clinical strain with strong virulence, served as the positive control for the cell invasion assay; E. coli ATCC 25922 (treated without DMSO), an avirulent strain, served as the negative control for the cell invasion assay; bacteria treated with 0.1% DMSO (the solvent of the potential PhoQ inhibitor) also served as a control for the cell invasion assay. Values are means ± standard deviations from 6 independent wells. *p<0.01 vs. Sf9380. (A) The effects of potential PhoQ inhibitors on cell invasion of S. flexneri Sf9380 (B) The effects of potential PhoQ inhibitors on intracellular growth S. flexneri Sf9380. (C) The effects of potential PhoQ inhibitors on cell invasion of S. flexneri 2a 301 phoQ/phoP knock-out mutant.
(§3) Bacterial ability to invade HeLa cells was tested with a gentamicin protection assay. HeLa cells were grown in six-well tissue culture plates to semi-confluent monolayers (DMEM, 10% FCS, 5% CO2). Sf9380 or Sf301 ΔphoQ/phoP was treated with potential PhoQ inhibitors for 8 hours in LB at 37°C (final concentrations of 100,50,25,12.5 or 6.25 µmol/L) prior to infection. The bacteria pre-treated with potential PhoQ inhibitor without washing, were added to semi-confluent HeLa cells at a multiplicity of infection of 100, at the same time the bacteria were diluted and plated onto LB agar plates. The CFUs were counted as initial bacterial number before added into HeLa cells. Then the plates were centrifuged at 900×g for 5 minutes. After incubating at 37°C for 60 minutes (For testing intracellular growth and spreading to adjacent cell, cells were further incubated for 290 min [9].), the cells were washed three times with PBS, and gentamicin was added to the medium to a final concentration of 10 µg/ml for 20 minutes at 37°C. After the incubation, the HeLa cells in each well were lysed in 1 ml of PBS containing 0.1% Triton X-100 for 10 minutes at room temperature. The lysates were diluted and plated onto LB agar plates in triplicate. Colonies grown on LB plates were counted. The results of the assays were expressed as the number of bacteria recovered from gentamicin-treated cells divided by the number of inoculated bacteria added to the cell. The cells were inoculated with untreated Sf9380 or Sf301 ΔphoQ/phoP (treated without DMSO) as a positive control and E. coli ATCC 25922, an avirulent strain treated without DMSO, as a negative control. […]

[3] = system: S. flexneri Sf9380; test: Gentamicin protection assay, HeLa cell invasion by Sf9380; type: cell-based
Description: as §1, §2, §3

[4] = Sf9380 pre-treated with 12.5 µmol/L
[5] = Sf9380 pre-treated with 25 µmol/L

SMILES | degree of keratoconjunctival inflammation ([1]; 24 h, mouse 1) | degree of keratoconjunctival inflammation ([1]; 24 h, mouse 2) | degree of keratoconjunctival inflammation ([1]; 24 h, mouse 3) | degree of keratoconjunctival inflammation ([1]; 24 h, mouse 4) | degree of keratoconjunctival inflammation ([1]; 24 h, mouse 5) | degree of keratoconjunctival inflammation ([1]; 24 h, mouse 6) | degree of keratoconjunctival inflammation ([1]; 48 h, mouse 1) | degree of keratoconjunctival inflammation ([1]; 48 h, mouse 2) | degree of keratoconjunctival inflammation ([1]; 48 h, mouse 3) | degree of keratoconjunctival inflammation ([1]; 48 h, mouse 4) | degree of keratoconjunctival inflammation ([1]; 48 h, mouse 5) | degree of keratoconjunctival inflammation ([1]; 48 h, mouse 6) | degree of keratoconjunctival inflammation ([1]; 72 h, mouse 1) | degree of keratoconjunctival inflammation ([1]; 72 h, mouse 2) | degree of keratoconjunctival inflammation ([1]; 72 h, mouse 3) | degree of keratoconjunctival inflammation ([1]; 72 h, mouse 4) | degree of keratoconjunctival inflammation ([1]; 72 h, mouse 5) | degree of keratoconjunctival inflammation ([1]; 72 h, mouse 6) | degree of keratoconjunctival inflammation ([1]; 96 h, mouse 1) | degree of keratoconjunctival inflammation ([1]; 96 h, mouse 2) | also measured
O=C(Nc1ccc(C2(c3cccc(NC(=O)c4cccc5ccccc45)c3)c3ccccc3C(=O)c3ccccc32)cc1)c1ccc2ccccc2c1 [Compound 1] | + | + | + | − | + | + | − | − | + | − | − | − | − | − | − | − | − | − | − | − | degree of keratoconjunctival inflammation ([1]; 96 h, mouse 3): −; degree of keratoconjunctival inflammation ([1]; 96 h, mouse 4): −; degree of keratoconjunctival inflammation ([1]; 96 h, mouse 5): −; degree of keratoconjunctival inflammation ([1]; 96 h, mouse 6): −; eye finding at 24 hours after infection [1, 4]: slight conjunctival inflammation; time by which keratoconjunctivitis was resolved [1, 4]: ≤ 48 h; keratoconjunctival inflammation (words, abstract) [1]: no inflammation; times lower than untreated Sf9380, intracellular growth ([2]; 12.5 µmo/L): 1.96 times; intracellular growth and spreading to adjacent cell of Sf9380 (bacteria recovered / inoculated) ([2]; 12.5 µmo/L): 0.061; times lower invasion than untreated Sf9380 ([3]; 12.5 µmo/L, HeLa cells): 4.3 times; invasion of HeLa cells by Sf9380 (bacteria recovered / inoculated) ([3]; 12.5 µmo/L, bacteria pre-treated 8 hours, untreated Sf9380 5.87×10^−2): 1.36×10^−2; effect on invasion of HeLa cells by Sf9380 ([3]; concentrations lower than 12.5 µmo/L): no obvious effects
CCOc1ccccc1-c1cc(C(=O)N/N=C/c2ccc(OCc3ccccc3)c(OC)c2)c2ccccc2n1 [Compound 2] | + | + | + | + | + | + | − | + | − | − | − | − | − | − | − | − | − | − | − | − | degree of keratoconjunctival inflammation ([1]; 96 h, mouse 3): −; degree of keratoconjunctival inflammation ([1]; 96 h, mouse 4): −; degree of keratoconjunctival inflammation ([1]; 96 h, mouse 5): −; degree of keratoconjunctival inflammation ([1]; 96 h, mouse 6): −; eye finding at 24 hours after infection [1, 5]: slight conjunctival inflammation; time by which keratoconjunctivitis was resolved [1, 5]: ≤ 48 h; keratoconjunctival inflammation (words, abstract) [1]: no inflammation; times lower than untreated Sf9380, intracellular growth ([2]; 25 µmo/L): 3.3 times; intracellular growth and spreading to adjacent cell of Sf9380 (bacteria recovered / inoculated) ([2]; 25 µmo/L): 0.036; times lower invasion than the control ([3]; 25 µmo/L, HeLa cells): 16.3 times; effect on invasion of HeLa cells by Sf9380 ([3]; concentrations lower than 25 µmo/L): no obvious effects
